Experimental data reported in patent US11006600B2, “Rice cultivar designated ‘CL272’” (Board of Supervisors of Louisiana State University and …, priority 2016, dated 2021).

Test system: rice cultivar 'CL272'
Test: Herbicide tolerance and susceptibility characteristics of rice variety 'CL272'
Format: in vivo, Oryza sativa
Conditions: for response of 'CL272' rice to the herbicide (resistant / sensitive): at levels of the herbicide that would normally inhibit the growth of a rice plant; for resistance of 'CL272' rice to imidazolinone herbicides, general statement: in vivo
Text: Among others, the herbicide tolerance and susceptibility characteristics of ‘CL272’ include or are expected to include the following. These characteristics are in some cases based on actual observations to date, and in other cases reflect assumptions based on direct descent from ‘CL161’: […]

SMILES	response of 'CL272' rice to the herbicide (resistant / sensitive)	resistance of 'CL272' rice to imidazolinone herbicides, general statement
Cc1cnc(C2=NC(=O)C(C)(C(C)C)N2)c(C(=O)O)c1 (centres unmarked) [imazapic]	resistant	
CCS(=O)(=O)c1cccnc1S(=O)(=O)NC(=O)Nc1nc(OC)cc(OC)n1 [rimsulfuron]	sensitive	
COC(=O)c1ccccc1S(=O)(=O)NC(=O)Nc1nc(C)cc(C)n1 [sulfometuron methyl]	sensitive	
CCOC(=O)c1ccccc1S(=O)(=O)NC(=O)Nc1nc(Cl)cc(OC)n1 [chlorimuron ethyl]	sensitive	
CC(C)C1(C)N=C(c2ncccc2C(=O)O)NC1=O (centres unmarked) [imazapyr]	resistant	
CCc1cnc(C2=NC(C)(C(C)C)C(=O)N2)c(C(=O)O)c1 (centres unmarked) [imazethapyr]	resistant	highly resistant
CC(C)C1(C)N=C(c2nc3ccccc3cc2C(=O)O)NC1=O (centres unmarked) [imazaquin]	resistant	
COC(=O)c1ccccc1S(=O)(=O)NC(=O)N(C)c1nc(C)nc(OC)n1 [tribenuron methyl]	resistant	
COc1cc(OC)nc(NC(=O)NS(=O)(=O)c2ncccc2C(=O)N(C)C)n1 [nicosulfuron]	resistant	
COCc1cnc(C2=NC(C)(C(C)C)C(=O)N2)c(C(=O)O)c1 (centres unmarked) [imazamox]	resistant	highly resistant
COC(=O)c1ccccc1S(=O)(=O)NC(=O)Nc1nc(C)nc(OC)n1 [metsulfuron methyl]	resistant	
COC(=O)c1sccc1S(=O)(=O)NC(=O)Nc1nc(C)nc(OC)n1 [thifensulfuron methyl]	resistant	
